# Data taken from US20260097106A1, “AVIRULENT LIVE BACTERIAL VACCINES CURED OF PLASMIDS CONTAINING ANTIMICROBIAL RESISTANCE GENES” (Drs. Koehnk & Feldman, LLP, priority 2022, published 2026).
# What was measured:
# Type in all cases: cell-based, E. coli
# [1] = system: MS060520HM-PCISRAF18 cells; experiment: Tetracycline HCl serial dilution in TSB media, turbidity
# Protocol: Further evaluation of tetracycline sensitivity of cured MS060520HM-PCISRAF 18 cells was performed as follows: inoculating 10 ml of TSB media with MS060520HM-PCISRAF18 cells, incubating at 37° C. for 22 hours on orbital shaker at 150 rpm, preparing 1:1 serial dilutions of 5 ml tetracycline HCL in TSB media (from stock of 640 mg tetracycline HCl in 5 ml ultrapure water), inoculating the serial dilutions with 10 ul of the fermentate.
# [2] = system: MS-K88-030321HM-PC2BSRAK88; experiment: Growth on blood agar containing 16 μg/ml tetracycline HCl; conditions: 18 hours at 37° C.
# Protocol: (§1) Comparison of tetracycline resistance between Edema Vac F18 cells cured of plasmids that contain AMR genes (MS060520HM-PCISRAF18) and Entero Vac K88 cells cured of plasmids that contain AMR genes (MS-K88-030321HM-PC2BSRAK88) was performed as follows: preparing subcultures of MS060520HM-PCISRAF18 and MS-K88-030321HM-PC2BSRAK88 on blood agar containing 16 μg/ml tetracycline HCl, incubating for 18 hours at 37° C., and observing haemolytic growth.
# MS060520HM-PCISRAF18 = experiment: as above; conditions: 18 hours at 37° C.
# Protocol: as §1
# [3] = system: MS112101HM-AMR5 (Edema Vac F18 transformed with AMR5 plasmid); experiment: AMR disc testing on Mueller Hinton agar plates; conditions: antibiotic disc, Mueller Hinton plates
# Protocol: (§2) AMR testing was performed comparing MS112101HM—SR, MS112101HM-AMR5, and MS112101HM-competent cells cultured on Mueller Hinton agar plates using Sulfatrim (SXT), Tetracycline (TE 30), Neomycin (NE 30), Sulfathiazine (ST 0.25), and Gentamicin (GM 10) discs.
# [4] = system: MS112101HM-SR (Edema Vac F18 cells cured of plasmids that contain AMR genes); experiment: AMR disc testing on Mueller Hinton agar plates
# Protocol: as §2
# [5] = system: MS112101HM-competent (competent Edema Vac F18 cells); experiment: AMR disc testing on Mueller Hinton agar plates; conditions: antibiotic disc
# Protocol: as §2
# [6] = system: ECMS091703HM-SR (Entero Vac K88 cells cured of plasmids that contain AMR genes); experiment: AMR disc testing on Mueller Hinton agar plates
# Protocol: (§3) AMR testing was performed comparing ECMS091703HM-SR and ECMS091703HM-competent cells cultured on Mueller Hinton agar plates using Neomycin (NE 30) and Sulfathiazine (ST 0.25) discs. A master plate of ECMS091703HM-SR was produced as follows: subculturing a colony of ECMS091703HM-SR from LB agar containing 5% sucrose on new LB agar containing 5% sucrose, incubating overnight at 37° C., and storing sealed at 2-8° C.
# [7] = system: ECMS091703HM-competent (competent Entero Vac K88 cells); experiment: AMR disc testing on Mueller Hinton agar plates; conditions: antibiotic disc
# Protocol: as §3
compound,measurement,setting,value
"CN(C)[C@@H]1C(O)=C(C(N)=O)C(=O)[C@@]2(O)C(O)=C3C(=O)c4c(O)cccc4[C@@](C)(O)[C@H]3C[C@@H]12.Cl [Tet HCl, Tetracycline HCL]",Turbidity 8 hours post inoculation,[1]; Tet HCl 2 μg/ml in TSB media,Pos
same,Turbidity 24 hours post inoculation,[1]; Tet HCl 2 μg/ml in TSB media,Pos
same,Turbidity 8 hours post inoculation,[1]; Tet HCl 4 μg/ml in TSB media,Pos
same,Turbidity 24 hours post inoculation,[1]; Tet HCl 4 μg/ml in TSB media,Pos
same,Turbidity 8 hours post inoculation,[1]; Tet HCl 8 μg/ml in TSB media,Pos
same,Turbidity 24 hours post inoculation,[1]; Tet HCl 8 μg/ml in TSB media,Pos
same,Turbidity 8 hours post inoculation,[1]; Tet HCl 16 μg/ml in TSB media,Pos
same,Turbidity 24 hours post inoculation,[1]; Tet HCl 16 μg/ml in TSB media,Pos
same,Turbidity 8 hours post inoculation,[1]; Tet HCl 32 μg/ml in TSB media,Pos
same,Turbidity 24 hours post inoculation,[1]; Tet HCl 32 μg/ml in TSB media,Pos
same,Turbidity 8 hours post inoculation,[1]; Tet HCl 64 μg/ml in TSB media,Slight
same,Turbidity 24 hours post inoculation,[1]; Tet HCl 64 μg/ml in TSB media,Pos
same,Turbidity 8 hours post inoculation,[1]; Tet HCl 128 μg/ml in TSB media,Neg
same,Turbidity 24 hours post inoculation,[1]; Tet HCl 128 μg/ml in TSB media,Pos
same,Concentration with inhibited growth,[1]; tetracycline HCl in TSB media,128 µg/mL
same,Tetracycline resistance (haemolytic growth),[2],did not display any tetracycline resistance
same,Tetracycline resistance (haemolytic growth),MS060520HM-PCISRAF18,confirmed tetracycline resistance
Sulfathiazine [ST 0.25],"Ring measurement (radius, mm)",[3],18 mm
same,"Ring measurement (radius, mm)","[4]; antibiotic disc, Mueller Hinton plates, MS112101HM-SR",15 mm
same,Resistance of the strain to the antibiotic (in words),"[4]; disc test, MS112101HM-SR compared with MS112101HM-competent",less resistance
same,"Ring measurement (radius, mm)",[5],0 mm
same,"Ring measurement (radius, mm)","[6]; antibiotic disc, Mueller Hinton plates, ECMS091703HM-SR",20 mm
same,Resistance of the strain to the antibiotic (in words),"[6]; disc test, ECMS091703HM-SR compared with ECMS091703HM-competent",less resistance
same,"Ring measurement (radius, mm)",[7],13 mm
